Data as given in article PMC9800617, “Pharmacokinetics/pharmacodynamics of polymyxin B in patients with bloodstream infection caused by carbapenem-resistant Klebsiella pneumoniae” (Frontiers in Pharmacology, 2022).
In brackets after ≈: the same amount, converted by molar mass. Where two headings read alike, the source gives them in different places.

Experiments:
[1] = system: carbapenem-resistant K. pneumoniae; conditions: retrospective, 2021, cited from earlier work
Text: In the present study, microbiological eradication was achieved by the third day of treatment in all eight patients assessed and blood culture remained negative until they had completed the study or withdrew. Clinical improvement occurred in 6 of 8 (75%) of th ...

[2] = system: carbapenem-resistant K. pneumoniae (CRKP) strains; assay: Broth microdilution MIC (EUCAST); type: cell-based; conditions: Klebsiella pneumoniae
Protocol: The minimum inhibitory concentrations (MICs) to polymyxin B and meropenem of the collected CRKP strains were determined by broth microdilution according to the European Committee on Antimicrobial Susceptibility Testing (EUCAST) guidelines and interpreted according to EUCAST breakpoints of colistin (Breakpoint tables for interpretation of MICs and zone diameters, Version 11.0); Escherichia coli ATCC 25922 was used as the control strain. Polymerase chain reaction (PCR) was employed to determine the presence of resistance genes (KPC, NDM, IMP, OXA, VIM). The primers were the same as in a published protocol and the sample process procedures were adapted a little bit ([Poirel et al., 2011]). To be brief, a single colony of the bacteria were picked and resuspended in ultra-pure water, and total DNA was extracted by heating bacterial suspension at 100°C for 10 min to lysis and release DNA. The suspension was centrifuged for total DNA which was dissolved in supernatant. Then 2 µl total DNA, 1 µl forward and 1 µl reverse primers (10 µM) for each targeted gene, 12.5 µl 2 × Hieff® Robust PCR Master Mix (Yeasen, Shanghai, China) and ultra-pure water were mixed into a 25 µl reaction mixture. […] Finally amplified DNA fragments were analyzed by electrophoresis in a 1% agarose gel. […]

A. baumannii = conditions: cited from earlier work
Protocol: (§1) Monte Carlo simulations were conducted for the probability of target attainment (PTA) analysis to guide the selection of optimal dosage regimens. Different dosage regimens were simulated by the PPK model and AUCss,24h were calculated. […] The maximal reductions in colony f ... || FIGURE 4 Probability of target attainment for different dosage regimens of polymyxin B against common carbapenem-resistant organisms according to PK/PD simulations. (A) Loading dose for three bacterial species. […] In preclinical studies, the fAUC/MIC required for various magnitudes of bacterial killing varied among bacterial strains and infection sites. […] Against P. aeruginosa and A. b ... || (+ 2 further places)

P. aeruginosa = conditions: cited from earlier work
Protocol: as §1

In the case of `NCC[C@H](O)C(=O)N[C@@H]1C[C@H](N)[C@@H](O[C@H]2O[C@H](CN)[C@@H](O)[C@H](O)[C@H]2O)[C@H](O)[C@H]1O[C@H]1O[C@H](CO)[C@@H](O)[C@H](N)[C@H]1O` [amikacin], the 30-day mortality ([1]; amikacin and its combinations for CRKP infection, ref Rodrigues et al.) is listed as 34.5%.
`C[C@@H](O)[C@H]1C(=O)N2C(C(=O)O)=C(S[C@@H]3CN[C@H](C(=O)N(C)C)C3)[C@H](C)[C@H]12` [meropenem] gave an MIC ([2]; 9 strains (all except strain No. 2–2), read-out: meropenem MIC) greater than 64 µg/mL and an MIC ([2]; strain No. 2–2, read-out: meropenem MIC) of 4 µg/mL (≈ 10.4 µM).
For ceftazidime-avibactam, the 30-day mortality ([1]; CRKP BSI, alone or combined with other antibiotics, ref Tumbarello et al.) is listed as “around 25%”.
In the case of colistin, the fAUC24h/MIC target (A. baumannii; 2-log10 reduction against A. baumannii, murine thigh infection, ref Cheah et al., 2015) is given as 17.6, the fAUC/MIC target (A. baumannii; 2 log10 kill, mouse thigh infection, A. baumannii, ref Dudhani et al., 2010a, 2010b) is given as roughly 17 and the fAUC24h/MIC target (P. aeruginosa; 2-log10 reduction against P. aeruginosa, murine thigh infection, ref Cheah et al., 2015) is given as 13.5. The fAUC/MIC target (P. aeruginosa; 2 log10 kill, mouse thigh infection, P. aeruginosa, ref Dudhani et al., 2010a, 2010b) was roughly 17.
